This data set deals with Cecum Ligation-Puncture (CLP) induced sepsis. As to the kind of experiment: Cecum Ligation-Puncture (CLP) induced sepsis in rats, daily calcitriol dosing, survival and body weight. The data set is classed as in vivo, adult Wistar rats. To be noted: CLP septic rats. As to the method: Then, the optimal dosing of calcitriol as an example of an agent for treatment of sepsis according to the present invention was determined. Anesthesia was induced in adult Wistar rats with 5% isoflurane followed by maintenance on 2.5% isoflurane. The cecum was exteriorized via a small abdominal incision, and was then ligated approximately 3.5 […] distal to the cecum tip. The ligated cecum was punctured twice with a 26-gauge needle and was gently squeezed to extrude some stool. The cecum was replaced in the abdomen and the incision closed with 4-0 silk sutures in two layers, abdominal wall and skin. This Cecum Ligation-Puncture (CLP) procedure induced sepsis in the animals. Sham-operated rats were treated identically, except that the cecum was neither ligated nor punctured.
The rats then received either standard therapy (normal saline (30 ml/kg body weight) given once immediately after the CLP procedure to compensate the third-space fluid loss and imipenem (25 mg/kg body weight) daily subcutaneously) or therapy according to the present invention (calcitriol at 25 ng, 100 ng or 400 ng in peanut oil subcutaneously daily). The rats were monitored daily for body weight and survival.
Referring now to FIG. 9 and FIG. 10, there are shown, respectively, a graph of percent survival as a function of time after induction of sepsis in rats showing the effect of various doses of calcitriol (none, triangles; 25 ng daily, line; 100 ng daily, circles; and 400 ng daily, squares) (FIG. 9); and a graph of body weight in grams as a function of time after induction of sepsis in rats showing the effect of various doses of calcitriol (none, triangles; 25 ng daily, line; 100 ng daily, circles; and 400 ng daily, squares) (FIG. 10).

Take `C=C1C(=CC=C2CCC[C@]3(C)[C@@H]2CC[C@@H]3[C@H](C)CCCC(C)(C)O)C[C@@H](O)C[C@@H]1O` [calcitriol, (1R,3S)-5-[2-[(1R,3aR,7aS)-1-[(2R)-6-hydroxy-6-methyl-heptan-2-yl]-7a-methyl-2,3,3a,5,6,7-hexahydro-1H-inden-4-ylidene]ethylidene]-4-methylidene-cyclohexane-1,3-diol]: the signs of hypercalcemia result (400 ng daily subcutaneously) is “typical signs of hypercalcemia”. Also, the effect on survival entry (400 ng daily subcutaneously, FIG. 9) was “negatively affected”. For the same molecule, the “effect on body weight” value (400 ng daily subcutaneously, FIG. 10) is on record as “negatively affected”. The “optimal dose for survival” value (calcitriol 25, 100 or 400 ng in peanut oil subcutaneously daily, FIG. 9) came to 100 ng daily. The “optimal dose for body weight” value (calcitriol 25, 100 or 400 ng in peanut oil subcutaneously daily, FIG. 10) stood at 100 ng daily.

These data come from US20150335662A1, “METHODS FOR DIAGNOSING AND TREATING SEPSIS” (priority 2013, published 2015).
